Laboratory results: patent publication US20140348861A1, “SYNTHETIC PEPTIDES AND RANDOM COPOLYMERS FOR THE TREATMENT OF AUTOIMMUNE DISORDERS” (NATIONAL INSTITUTE OF IMMUNOLOGY, priority 2011, published 2014)
Non-standard residues stand in square brackets, D forms with d. No end group written: not given here. β3hY = N[C@H](CC(=O)O)Cc1ccc(O)cc1; β3hK = NCCCC[C@H](N)CC(=O)O; β3hV = CC(C)[C@H](N)CC(=O)O; β3hA = C[C@H](N)CC(=O)O

How the values were obtained:
HLA DR2 = biological target: T1, HLA DR2 (Homo sapiens, UniProt P01903+P01911); test: Inhibition of binding of biotinylated MBP (85-99) to HLA DR2; conditions: 5 μM competitor, 0.5 μM biotinylated MBP (85-99); FIG. 3
T1 construct: endogenous in cells; host or cells: MGAR lymphoblastoid B cell line (IHWG, Seattle)
Method: HLA DR2 molecules were affinity purified from MGAR (a lymphoblastoid B cell line expressing HLA DR2 obtained from IHWG, Seattle, Wash. —USA) cell line. Cells were cultured in RPMI 1640 supplemented with 10% FBS, 2 mM glutamine, 50 U/ml penicillin and 50 μg/ml streptomycin. The anti-DR antibody L243 was purchased from Santacruz Biotech.
HLA DR2 was purified to a purity of 90-95% by immunoaffinity purification. Briefly, MGAR cells were detergent solubilized to prepare the membrane fraction which was passed sequentially through sepharose CL-6B, normal mouse serum-affinity-gel, Protein A sepharose CL-4B and L243-protein A sepharose-CL-4B at a flow rate of around 10-11 ml/h. The final eluate was dialyzed against 0.1% deoxycholate, 10 mM Tris-HCl (pH 8.0) and concentrated using centricon concentrators from Millipore. Protein concentration was determined using bicinchoninic acid (BCA) assay (Sigma). The obtained protein fraction was also run on SDS-PAGE gel to confirm identity and purity.
Copolymers (GA, J91, J92, S101 to S109) and peptide analogs (S1-S82) at a final concentration of 5 μM were coincubated with biotinylated MBP (85-99; purchased from Bioconcept Labs Pvt. Ltd. India) at a final concentration of 0.5 μM and HLA DR2 (0.5 μg/sample) molecules for 40 h at 37° C. and transferred to a 96-well microtiter assay plates coated with 1 μg/well purified L243 mAb. Coating of microtiter plates was performed with 100 μl of L243 mAb in PBS for 18 h at 4° C. […] 3,3′,5,5′-tetramethylbenzidine (TMB, substrate for […]) was added to each well and absorbance at 410 nm was recorded on an ELISA reader (TECAN infinite M200).
Ability of analogs viz. […] Most of the analogs designed herein viz.
β^3-homo amino acid containing copolymers viz. […] Copolymers containing β^3-homo amino acids viz.

[1] = tested on: relapsing remitting EAE in SJL/J mice; test: Prophylactic (pre-treatment) efficacy in relapsing remitting EAE; format: in vivo; conditions: pre-treatment 0.5 mg in IFA; FIG. 2i
Method: (§1) To induce RR EAE or chronic progressive EAE, SJL/J or C57BL6/J mice were immunized subcutaneously with 0.2 mg of MBP (85-109) or 0.1 mg MOG (35-55) emulsified in CFA and 200 ng of pertussis toxin was injected intraperitoneally on day 0 and day 2 so as to permeablize the blood brain barrier. All the animals in various experimental groups were scored daily for clinical disability on a scale of 0-6 where 0=no neurological symptoms, 1=limp tail, 2=weakness of hind limbs or ataxia, 3=incomplete paralysis of hind limbs, 4=complete paralysis of hind limbs, 5=complete paralysis of all four limbs, 6=dead. Diseased animals were provided easy access to food and water.

[2] = in vivo; cited from earlier work
spleenocytes = test: Th1/Th2 cytokine levels in culture supernates of spleenocytes from treatment groups; format: cell-based, mice; conditions: spleenocytes at the end of four weeks, FIG. 4; for decrease in IFN-γ levels: stimulated 48 h
Method: Levels of various cytokines in culture supernates were determined by sandwich ELISA using multiplex cytokine ELISA kit (Millipore). Briefly, 100 μl of cell culture supernates from various groups were incubated with antibody (against various pro and anti-inflammatory cytokines) coated fluorescent polystyrene beads in 96 well microtiter plates, stained with PE-conjugated secondary antibody, provided in the kit and samples were acquired on […] (Bio-rad).
Effect of a group of analogs comprising analogs viz.
Effect of β^3-homo amino acid containing copolymers viz S101, S102 and S103 on Th1/Th2 cytokine balance was studied in comparison to other copolymers viz. GA, J91, J92, for which culture supernates of spleenocytes grown in the presence of various copolymers, were assayed using ELISA to determine the levels of various cytokines. […] Most noteworthy change was in the levels of IL-2 in the S101, S102 and S103 treated groups, where the levels were brought down by 60-70%.

[3] = tested on: SJL/J mice exhibiting MBP (85-109) induced relapsing remitting form of EAE; test: Therapeutic activity in MBP (85-109) induced relapsing remitting EAE, treatment from day 11; format: in vivo; conditions: for Therapeutic activity in comparison to GA (Therapeutic activity (Analogs) − Therapeutic activity GA) / Therapeutic activity in comparison to J5 (Therapeutic activity (Analogs) − Therapeutic activity (J5)) / Therapeutic activity = % reduction in cumulative clinical disability score: SJL/J mice, RR EAE; for Therapeutic activity in comparison to GA (Therapeutic activity (Analogs) − Therapeutic activity GA) / Therapeutic activity in comparison to J5 (Therapeutic activity (Analogs) − Therapeutic activity (J5)): 0.1 mg daily for two weeks
Method in brief: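 Female SJL/J mice, 8-10 weeks, immunized s.c. with 0.2 mg MBP (85-109) in CFA plus 200 ng pertussis toxin i.p. on days 0 and 2. Treatment ran from day 11 for two weeks. Clinical disability was scored daily on a 0-6 scale.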

[4] = tested on: MBP (85-109) reactive CD4+ and CD8+ T-cells; test: Recall (proliferative) response of CD4+ and CD8+ T-cells to MBP (85-109) after pre-treatment; format: cell-based, mice
Excerpt: Spleen derived dendritic cells were isolated to >95% purity using plasmacytoid dendritic cell isolation kit from Miltenyi Biotech. Spleenocytes were isolated from spleen of SJL/J mice, minced and passed through a 70 micron cell strainer (BD Falcon) to get a single cell suspension. The resulting spleenocytes were first depleted of CD3+ T cells and CD 49b/pan NK+ cells using LD depletion columns provided in the kit. The CD3 and CD 49b negative cell population was collected, counted and positive selection of CD11c+ dendritic cells was performed on positive selection columns provided in the kit. The CD11c+ population was collected by removing the column from the magnetic stand, stained with trypan blue to check the viability and purity was determined using flow cytometry.
After two weeks spleenocytes were isolated, fractioned into CD4+ and CD8+ T-cells, cultured with MBP (85-109) pulsed spleen derived dendritic cells and assayed for proliferation (^3[H]-thymidine). […] As recall response to MBP (85-109) is a direct measure of frequencies of MBP (85-109) reactive CD4+ or CD8+ T-cells, in the immunized animals.

[5] = tested on: MOG (35-55) induced chronic EAE in C57BL6/J mice; test: Prophylactic (pre-treatment) efficacy in MOG (35-55) induced chronic EAE; format: in vivo; conditions: FIGS. 2j and 2k
Method: as §1

[6] = tested on: MOG (35-55) induced chronic progressive EAE in C57BL6/J mice; test: Therapeutic effect in MOG (35-55) induced chronic progressive EAE; format: in vivo; conditions: daily dose of 5 mg/Kg body weight, FIGS. 2e and 2f
Method: as §1
Some analogs viz. […] Dosage kinetic experiments with analog S27 representing the group of analogs comprising viz.

[7] = synthetic peptides, 0.1 mg daily for two weeks from day 11 post-immunization

T1 sequence (P01903 26-254): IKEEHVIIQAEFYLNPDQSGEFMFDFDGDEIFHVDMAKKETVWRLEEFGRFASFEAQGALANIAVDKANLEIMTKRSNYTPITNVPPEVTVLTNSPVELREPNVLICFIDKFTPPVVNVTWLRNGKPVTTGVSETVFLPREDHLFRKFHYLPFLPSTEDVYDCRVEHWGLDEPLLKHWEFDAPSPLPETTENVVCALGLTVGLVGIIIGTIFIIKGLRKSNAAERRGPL
T1 sequence (P01911 30-266): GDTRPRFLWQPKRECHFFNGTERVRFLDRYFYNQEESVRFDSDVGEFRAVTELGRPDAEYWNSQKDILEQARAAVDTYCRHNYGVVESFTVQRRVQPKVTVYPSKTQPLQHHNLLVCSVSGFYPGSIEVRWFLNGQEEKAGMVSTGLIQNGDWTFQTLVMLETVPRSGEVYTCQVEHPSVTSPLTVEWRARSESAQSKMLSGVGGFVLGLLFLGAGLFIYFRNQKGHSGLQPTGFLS

Row | Substance | inhibition of binding of biotinylated MBP (85-99) to HLA DR2 (HLA DR2) | effect on clinical onset of disease [1] | success rate in reducing the relapses [2] [%] | decrease in IFN-γ levels (spleenocytes) | rise in IL-4 levels (spleenocytes) [fold] | Therapeutic activity in comparison to GA (Therapeutic activity (Analogs) − Therapeutic activity GA) [3] [%] | Therapeutic activity in comparison to J5 (Therapeutic activity (Analogs) − Therapeutic activity (J5)) [3] [%] | Therapeutic activity = % reduction in cumulative clinical disability score ([3]; amino acid copolymers, 0.1 mg daily for two weeks from day 11) [%] | Therapeutic activity = % reduction in cumulative clinical disability score [3, 7] [%] | recall response to MBP (85-109), CD4+ T-cell fraction (3[H]-thymidine proliferation) ([4]; 0.5 mg in IFA a day before immunization, spleenocytes after two weeks, FIG. 1a) | recall response to MBP (85-109), CD8+ T-cell fraction, suppression compared to J5 or GA treated group ([4]; 0.5 mg in IFA a day before immunization, spleenocytes after two weeks, FIG. 1b) | recall response to purified protein derivative (PPD) ([4]; specificity control antigen, FIGS. 1a and b) | delay of clinical onset of disease [1] [days] | suppression after pre-treatment [5] | change in IL-4 levels (spleenocytes) | reduction in clinical disability score [6] [%] | duration of effect once the treatment is stopped ([3]; FIG. 2b) | efficacy relative to GA ([3]; both treatment and pre-treatment scenarios) | optimum daily dosage ([3]; dosage kinetic experiments, rodents, FIGS. 2c and 2d) [mg/kg body weight]
1 | Glatiramer Acetate [GA, reference compound] | ~21% | no effect on clinical onset of disease | 30 | approximately 70% | ~2 | 0 | −3.957 | 27.12 | 31.3369 |  |  |  |  |  |  |  |  |  | 
2 | Kβ^3Vβ^3Eβ^3Aβ^3Yβ^3Kβ^3Aβ^3Aβ^3Aβ^3Aβ^3 ([β3hK][β3hV]X[β3hA][β3hY][β3hK][β3hA][β3hA][β3hA][β3hA]; not fully specified (residue 3); printed as Kβ^3Vβ^3Eβ^3Aβ^3Yβ^3Kβ^3Aβ^3Aβ^3Aβ^3Aβ^3) [Analog S27] | approximately 60% |  |  | approximately 70% |  | 33.8 | 29.84 |  | 65.13 | considerable suppression | much more pronounced | remained unaffected | ~3 | 55-60% | only a marginal increase | ~60 | up to two weeks | approximately two times better | 5
